Test results reported in patent US7507727B2, “Substituted quinobenzoxazine analogs and methods of using thereof” (Cylene Pharmaceuticals, Inc., priority 2003, dated 2009).
Read-outs that look alike come from different tables or passages of the source.

Molecular target: c-Myc template DNA (c-myc quadruplex)
Test: Quadruplex binding / stop assay (Taq polymerase arrest, capillary electrophoresis)
[1] = read-out: Stop Data c-Myc μM, concentration at which 50% of the DNA was arrested (arrested:full-length 1:1)
[2] = read-out: S DATA, Table 1D, stop assay data

Row | SMILES | IC50 [1] [µM] | IC50 [2] [µM]
1 | CN(C)CCCCNC(=O)c1cn2c3cc4oc5cc([N+](=O)[O-])ccc5[nH]c4cc3oc3c(NCCCN4CCOCC4)c(F)cc(c1=O)c32 [compound 555] | 0.375 | –
2 | CN(C)CCCCNc1c(F)cc2c(=O)c(C(=O)NCCCN3CCOCC3)cn3c4cc5oc6cc([N+](=O)[O-])ccc6[nH]c5cc4oc1c23 [compound 556] | 0.375 | –
3 | CC1CCCCN1CCCNc1c(F)cc2c(=O)c(C(=O)NCCC3CCCN3C)cn3c2c1Oc1cc2ccccc2cc1-3 (stereo not shown) [compound 557] | 0.375 | –
4 | CC1(C)CC(NC(=O)c2cn3c4c(c(N5CCC(N)C5)ccc4c2=O)Oc2cc4ccccc4cc2-3)CC(C)(C)N1 (stereo not shown) [compound 558] | 0.375 | –
5 | CN1CCCC1CCNC(=O)c1cn2c3c(c(NCC4CCNC4)c(F)cc3c1=O)Oc1cc3ccccc3cc1-2 (stereo not shown) [compound 559] | 0.375 | –
6 | N=C(N)NCC1CCCC(CNC(=O)c2cn3c4c(c(N5CCC(N)C5)c(F)cc4c2=O)Oc2cc4ccccc4cc2-3)C1 (stereo not shown) [compound 560] | 0.37 | –
7 | N=C(N)NCCNC(=O)c1cn2c3c(c(NCCN4CCCC4)c(F)cc3c1=O)Oc1cc3ccccc3cc1-2 [compound 561] | 0.34 | –
8 | CN(C)CCCCNC(=O)c1cn2c3c(c(N4CC[C@@H](N)C4)c(F)cc3c1=O)Oc1cc3ccccc3cc1-2 [compound 567] | 0.25 | –
9 | CN(C)CCCCNC(=O)c1cn2c3cc4oc5cc([N+](=O)[O-])ccc5[nH]c4cc3oc3c(NCCC4CCCN4C)c(F)cc(c1=O)c32 (stereo not shown) [compound 585] | 0.18 | –
10 | CN(C)CCCCNc1c(F)cc2c(=O)c(C(=O)NCCN3CCCC3)cn3c4cc5oc6cc([N+](=O)[O-])ccc6[nH]c5cc4oc1c23 [compound 586] | 0.18 | –
11 | CN(C)CCCCNC(=O)c1cn2c3cc4oc5cc([N+](=O)[O-])ccc5[nH]c4cc3oc3c(NCCCCN(C)C)c(F)cc(c1=O)c32 [compound 587] | 0.18 | –
12 | CN(C)CCCCNCCC(=O)N[C@@H]1CCN(c2c(F)cc3c(=O)c(C(=O)NCCCN4CCN(C)CC4)cn4c3c2Oc2cc3c(cc2-4)oc2ccccc23)C1 [compound 588] | 0.18 | –
13 | CN(C)CCCCNC(=O)c1cn2c3c(c(N4CCC(N)C4)ccc3c1=O)Oc1cc3ccccc3cc1-2 (stereo not shown) [compound 589] | 0.18 | –
14 | O=C(NCCN1CCCC1)c1cn2c3cc4c(cc3oc3c(N5CC6CCCNC6C5)c(F)cc(c1=O)c32)c(=O)c1ccccc14 (stereo not shown) [compound 590] | 0.18 | –
15 | CN1CCCC1CCNC(=O)c1cn2c3c(c(NCCCCCO)c(F)cc3c1=O)Oc1cc3ccccc3cc1-2 (stereo not shown) [compound 1469] | 1.75 | –
16 | CCCCOCCCNc1c(F)cc2c(=O)c(C(=O)NCCC3CCCN3C)cn3c2c1Oc1cc2ccccc2cc1-3 (stereo not shown) [compound 1470] | 1.75 | –
17 | CN1CCCC1CCNC(=O)c1cn2c3c(c(NCC4CCCO4)c(F)cc3c1=O)Oc1cc3ccccc3cc1-2 (stereo not shown) [compound 1471] | 5 | –
18 | CN1CCCC1CCNC(=O)c1cn2c3c(c(N4CCC(n5c(=O)[nH]c6ccccc65)CC4)c(F)cc3c1=O)Oc1cc3ccccc3cc1-2 (stereo not shown) [compound 1477] | – | 1
19 | CN1CCCC1CCNC(=O)c1cn2c3c(c(NC4CC(C)(C)NC(C)(C)C4)c(F)cc3c1=O)Oc1cc3ccccc3cc1-2 (stereo not shown) [compound 1478] | – | 1
20 | CCN(CC)C(=O)C1CCCN(c2c(F)cc3c(=O)c(C(=O)NCCC4CCCN4C)cn4c3c2Oc2cc3ccccc3cc2-4)C1 (stereo not shown) [compound 1479] | – | 1.75
21 | CN1CCCC1CCNC(=O)c1cn2c3c(c(NC(=O)C4CCCNC4)c(F)cc3c1=O)Oc1cc3ccccc3cc1-2 (stereo not shown) [compound 1480] | – | 1.75
22 | CN1CCCC1CCNC(=O)c1cn2c3c(c(NCC4CCNCC4)c(F)cc3c1=O)Oc1cc3ccccc3cc1-2 (stereo not shown) [compound 1481] | – | 1.75
23 | CN1CCCC1CCNC(=O)c1cn2c3c(c(/N=C4\CCCCN4)c(F)cc3c1=O)Oc1cc3ccccc3cc1-2 (stereo not shown) [compound 1482] | – | 1.75

Row | SMILES | IC50 [1] [µM] | IC50 [2] [µM]
24 | CN1CCCC1CCNC(=O)c1cn2c3c(c(N4CCC(N5CCCCC5)CC4)c(F)cc3c1=O)Oc1cc3ccccc3cc1-2 (stereo not shown) [compound 1483] | – | 1.75
25 | CN1CCCC1CCNC(=O)c1cn2c3c(c(NC4CC(C)(C)N(O)C(C)(C)C4)c(F)cc3c1=O)Oc1cc3ccccc3cc1-2 (stereo not shown) [compound 1484] | – | 1.75
26 | CCOC(=O)N1CCC(Nc2c(F)cc3c(=O)c(C(=O)NCCC4CCCN4C)cn4c3c2Oc2cc3ccccc3cc2-4)CC1 (stereo not shown) [compound 1485] | – | 1.75
27 | CN1CCC(N(C)c2c(F)cc3c(=O)c(C(=O)NCCC4CCCN4C)cn4c3c2Oc2cc3ccccc3cc2-4)CC1 (stereo not shown) [compound 1486] | – | 1.75
28 | CN1CCCC1CCNC(=O)c1cn2c3c(c(N(C)C4CCN(Cc5ccccc5)CC4)c(F)cc3c1=O)Oc1cc3ccccc3cc1-2 (stereo not shown) [compound 1487] | – | 1.75
29 | CN1CCCC1CCNC(=O)c1cn2c3c(c(NCCN4CCCCC4)c(F)cc3c1=O)Oc1cc3ccccc3cc1-2 (stereo not shown) [compound 1488] | – | 0.75
30 | CC1CCCCN1CCCNc1c(F)cc2c(=O)c(C(=O)NCCC3CCCN3C)cn3c2c1Oc1cc2ccccc2cc1-3 (stereo not shown) [compound 1489] | – | 0.95
31 | CN1CCCC1CCNC(=O)c1cn2c3c(c(NC4CCCNC4)c(F)cc3c1=O)Oc1cc3ccccc3cc1-2 (stereo not shown) [compound 1490] | – | 0.75
32 | CN1CCCC1CCNC(=O)c1cn2c3c(c(N4CCC(C#N)(c5ccccc5)CC4)c(F)cc3c1=O)Oc1cc3ccccc3cc1-2 (stereo not shown) [compound 1491] | – | 1.75
33 | CN1CCCC1CCNC(=O)c1cn2c3c(c(N4CCC(N5CCCC5)CC4)c(F)cc3c1=O)Oc1cc3ccccc3cc1-2 (stereo not shown) [compound 1492] | – | 0.75
34 | CN1CCCC1CCNC(=O)c1cn2c3c(c(N4CCC(C(N)=O)CC4)c(F)cc3c1=O)Oc1cc3ccccc3cc1-2 (stereo not shown) [compound 1493] | – | 1.75
35 | CN1CCCC1CCNC(=O)c1cn2c3c(c(NC4CN5CCC4CC5)c(F)cc3c1=O)Oc1cc3ccccc3cc1-2 (stereo not shown) [compound 1495] | – | 0.75
36 | CN1CCCC1CCNC(=O)c1cn2c3c(c(N4CCC(NC(=O)OC(C)(C)C)CC4)c(F)cc3c1=O)Oc1cc3ccccc3cc1-2 (stereo not shown) [compound 1498] | – | 1.75
37 | CCN(CC)CCCC(C)Nc1c(F)cc2c(=O)c(C(=O)NCCC3CCCN3C)cn3c2c1Oc1cc2ccccc2cc1-3 (stereo not shown) [compound 1499] | – | 0.75
38 | CN(C)CCCNc1c(F)cc2c(=O)c(C(=O)NCCC3CCCN3C)cn3c2c1Oc1cc2ccccc2cc1-3 (stereo not shown) [compound 1500] | – | 0.75
39 | CC1CCN(CCCNc2c(F)cc3c(=O)c(C(=O)NCCC4CCCN4C)cn4c3c2Oc2cc3ccccc3cc2-4)CC1 (stereo not shown) [compound 1501] | – | 0.75
40 | CN1CCCC1CCNC(=O)c1cn2c3c(c(N(C)C4CCNC4)c(F)cc3c1=O)Oc1cc3ccccc3cc1-2 (stereo not shown) [compound 1502] | – | 0.75
41 | CN(CCCNc1c(F)cc2c(=O)c(C(=O)NCCC3CCCN3C)cn3c2c1Oc1cc2ccccc2cc1-3)c1ccccc1 (stereo not shown) [compound 1503] | – | 1.75
42 | CN1CCCC1CCNC(=O)c1cn2c3c(c(NCCCCN4CCCC4)c(F)cc3c1=O)Oc1cc3ccccc3cc1-2 (stereo not shown) [compound 1504] | – | 0.75
43 | CN1CCCC1CCNC(=O)c1cn2c3c(c(NC(=O)C4CNCCN4)c(F)cc3c1=O)Oc1cc3ccccc3cc1-2 (stereo not shown) [compound 1505] | – | > 15
44 | CN1CCCC1CCNC(=O)c1cn2c3c(c(NCC4CCN(C(=O)OC(C)(C)C)C4)c(F)cc3c1=O)Oc1cc3ccccc3cc1-2 (stereo not shown) [compound 1506] | – | 0.75
45 | CN1CCCC1CCNC(=O)c1cn2c3c(c(N4CCC(c5ccccn5)C4)c(F)cc3c1=O)Oc1cc3ccccc3cc1-2 (stereo not shown) [compound 1507] | – | 0.75
46 | CN1CCCC1CCNC(=O)c1cn2c3c(c(N4CCC(c5cccnc5)C4)c(F)cc3c1=O)Oc1cc3ccccc3cc1-2 (stereo not shown) [compound 1508] | – | 0.75
